Source: patent US20260048052A1, “METHODS OF TREATING TENOSYNOVIAL GIANT CELL TUMORS” (Deciphera Pharmaceuticals, LLC, priority 2023, published 2026)
Where “and” joins values, the source holds several entries; their conditions need not be identical. Identical values can stand only once.

How the values were obtained:
[1] = test system: patients with TGCT not amenable to surgery; assay: Phase 3, randomized, placebo-controlled, double-blind study of vimseltinib in patients with TGCT: efficacy; type: in vivo, human
Experimental: This study is a two-part, randomized, double-blind, placebo-controlled study to assess the efficacy and safety of vimseltinib in patients with TGCT not amenable to surgery with no prior anti-CSF1/CSF1R therapy (prior therapy with imatinib or nilotinib allowed). In Part 1, patients (n=123) were randomized two-to-one to receive either 30 mg twice weekly of vimseltinib (n=83) or placebo (n=40) for 24 weeks. Vimseltinib or matching placebo was administered orally each week on day 1 and day 5 (±1 day) at approximately the same time of day on an empty stomach, with ≥24 hours between doses. An MRI of the affected joint was performed at screening, cycle 4 day 1 (week 13; ±7 days), and at the end of Part 1. Part 2 is an ongoing open-label study, in which patients from both the vimseltinib and placebo arms receive treatment with vimseltinib.
The primary endpoint of the study is the objective response rate (ORR) at Week 25 as measured by Response Evaluation Criteria in Solid Tumors (RECIST) version 1.1 by blinded independent radiologic review (IRR). Key secondary endpoints included the objective response rate at Week 25 by IRR per tumor volume score (TVS), active range of motion (ROM) at Week 25, PROMIS physical function (PROMIS-PF) score, worst stiffness numeric rating scale (NRS) score at Week 25, EQ-visual analogue scale (EQ-VAS) score at Week 25, and greater than or equal to 30% reduction in Brief Pain Inventory (BPI) in worst pain and less than 30% increase in narcotic use (BPI-30) at Week 25. Other secondary endpoints included duration of response (DOR) and safety.
Eligibility Criteria: Eligible patients were aged ≥18 years with a histologically confirmed diagnosis of TGCT for which surgical resection would potentially cause worsening functional limitation or severe morbidity. Patients had at least 1 measurable lesion ≥2 cm using Response Evaluation Criteria in Solid Tumors version 1.1 (RECIST v1.1), as assessed from magnetic resonance imaging (MRI) by a central radiologist.
Patients were excluded for receiving previous systemic therapy targeting CSF1 or CSF1R including vimseltinib; previous therapy with imatinib and/or nilotinib was allowed. Patients who received any therapy for TGCT (including investigational therapy) during screening, had major surgery 14 days prior to the first dose of study drug, or participated in a non-TGCT investigational drug study within 30 days of screening were also excluded.
Tumor volume score (TVS) is a semiquantitative magnetic resonance imaging scoring system that describes tumor mass. It is based on 10% increments of the estimated volume of the maximally distended involved synovial cavity or tendon sheath. Scores ranged from 0 to 10, and a tumor that was equal in volume to that of a maximally distended synovial cavity or tendon sheath was scored a 10; a score of 0 indicated no evidence of a tumor.
Complete response denoted disappearance of all tumor(s). Partial response was at least a 50% reduction from baseline in TVS. Progressive disease was at least a 30% increase in TVS from baseline. Stable disease was neither a sufficient decrease to qualify for partial response nor sufficient increase to qualify for progressive disease, taking the nadir as a reference. Response was considered not evaluable if the TVS could not be assessed for reasons such as inadequate or missing imaging.
Active range of motion (ROM; in degrees) was assessed using a goniometer and was normalized using a reference standard provided by the American Medical Association to compute the relative active ROM. In joints where more than one motion was measured, the motion with the smallest relative ROM value (worst) was used for evaluating subsequent changes in relative active ROM.
Response for PROMIS-PF, worst stiffness NRS, and EQ-VAS was a change from baseline ≥3, ≤−2, and ≥7, respectively. BPI worst pain response was defined as a ≥30% reduction in worst pain without a ≥30% increase in narcotic analgesic use. […]

patients with TGCT = conditions: human, in vivo
Experimental: The safety population includes patients who received at least 1 dose of study drug. Severity was assessed by the investigator according to the toxicity grade described in the National Cancer Institute CTCAE v4.03 (grade 1 [mild] to grade 5 [death]). Time denotes the earliest start date of the worst grade for each TEAE; if the highest grade TEAE occurred in the first 12 months of treatment, lower grade events that occurred after 12 months were not captured in this figure. Key: AST, aspartate aminotransferase; COVID-19, coronavirus disease 2019; CPK, creatine phosphokinase; CTCAE v4.03, Common Terminology Criteria for Adverse Events version 4.03; LDH, lactate dehydrogenase; TEAE, treatment-emergent adverse event.
This is a Phase 1/2 open-label, multicenter study evaluating the safety and efficacy of vimseltinib in patients with TGCT. In Phase 1, 32 patients enrolled in three cohorts across multiple doses. In Phase 2, 66 patients enrolled in two cohorts at the recommended Phase 2 dose of 30 mg twice weekly: Cohort A (n=46) in TGCT patients with no prior anti-CSF1/CSF1R therapy (prior therapy with imatinib or nilotinib allowed); and Cohort B (n=20) in TGCT patients with prior anti-CSF1/CSF1R therapy (prior therapy with imatinib or nilotinib alone not eligible).

[2] = 30 mg twice weekly, ITT N=83, Week 25
[3] = 30 mg twice weekly, ITT, Week 25

Cc1nc(-c2cnc(NC(C)C)n(C)c2=O)ccc1Oc1ccnc(-c2cnn(C)c2)c1 [Vimseltinib, 2-(isopropylamino)-3-methyl-5-(6-methyl-5-((2-(1-methyl-IH-pyrazol-4-yl)pyridin-4-yl)oxy)pyridin-2-yl)pyrimidin-4(3H)-one]
clinical benefit (CR+PR+SD), best percentage change in target lesions by IRR ([1]; 30 mg twice weekly, FIG. 7A): Nearly all patients receiving vimseltinib experienced clinical benefit
BPI-30 Response in Worst Pain [1, 2]: 40 (48) n (%)
CFB in EQ-VAS at Week 25, LS Mean [1, 2]: 13.5
CFB in Worst Stiffness NRS at Week 25, LS Mean [1, 2]: −2.1
CR by IRR per TVS [1, 2]: 4 (5%) n (%)
Complete Response (CR) by IRR per RECIST 1.1 [1, 2]: 4 (5%) n (%)
ORR at Week 25 by IRR per RECIST 1.1 [1, 2]: 33 (40%) n (%)
ORR at Week 25 by IRR per RECIST v1.1 [1, 2]: 40%
PR by IRR per TVS [1, 2]: 52 (63%) n (%)
Partial Response (PR) by IRR per RECIST 1.1 [1, 2]: 29 (35%) n (%)
Stable disease (SD) by IRR per RECIST 1.1 [1, 2]: 42 (51%) n (%)
CFB in EQ-VAS at Week 25, Difference in LS Mean vs placebo [1, 3]: 7.4
CFB in Worst Stiffness NRS at Week 25, Difference in LS Mean vs placebo [1, 3]: −1.8
Difference in BPI-30 Response in Worst Pain vs placebo (95% CI) [1, 3]: 26% and 26 (4, 42) %
Difference in ORR (vimseltinib vs placebo) by IRR per TVS [1, 3]: 67%
Difference in ORR (vimseltinib vs. placebo) by IRR per RECIST 1.1 [1, 3]: 40%
response rate in active ROM at Week 25 ([1]; 30 mg twice weekly, N=79): 48%
response rate in PROMIS-PF at Week 25 ([1]; 30 mg twice weekly, N=79, response = change from baseline ≥3): 43%
response rate in EQ-VAS at Week 25 ([1]; 30 mg twice weekly, N=79, response = change from baseline ≥7): 37%
difference in response rate in EQ-VAS vs placebo ([1]; 30 mg twice weekly, Week 25): 12%
difference in response rate in PROMIS-PF vs placebo ([1]; 30 mg twice weekly, Week 25): 18%
difference in response rate in Worst Stiffness NRS vs placebo ([1]; 30 mg twice weekly, Week 25): 24%
difference in response rate in active ROM vs placebo ([1]; 30 mg twice weekly, Week 25): 28%
median duration of response by IRR per RECIST v1.1 ([1]; 30 mg twice weekly, responders): not reached
median duration of response by IRR per TVS ([1]; 30 mg twice weekly, responders): not reached
response rate in Worst Stiffness NRS at Week 25 ([1]; 30 mg twice weekly, response = change from baseline ≤−2): 39%
BPI-30 response rate in Worst Pain at Week 25 ([1]; 30 mg twice weekly, ≥30% reduction in BPI worst pain NRS and <30% increase in narcotic use): 48%
functional and symptomatic improvement across active ROM, PROMIS-PF, worst stiffness NRS, BPI worst pain ([1]; Week 25, versus placebo, FIG. 8): More patients experienced improvement in multiple measures
tumor responses, updated results ([1]; after 6 months): sustained tumor responses
Grade 3/4 TEAE eczema (patients with TGCT): 10%
Grade 3/4 TEAE increased blood CPK (patients with TGCT): 35%
Grade 3/4 TEAE increased blood creatine phosphokinase (CPK) (patients with TGCT): 48%
grade of the majority of TEAEs (patients with TGCT): grade 1 or 2
onset of the majority of the most severe events (patients with TGCT): ≤ 12 months
tolerability (patients with TGCT): well-tolerated
tolerability, longer follow-up (patients with TGCT): continued to be well tolerated with a manageable safety profile
treatment discontinuation due to TEAEs (patients with TGCT): 9%
